Like-named read-outs stand apart in the source and are kept apart here.
What was measured:
Type in all cases: in vivo
[1] = system: PR1 (PATHOGENESIS-RELATED PROTEIN 1) gene; test: PR1 gene expression (qPCR) in sprayed Arabidopsis thaliana plants
[2] = system: PDF1.2 (PLANT DEFENSIN 1.2) gene; test: PDF1.2 gene expression (qPCR) in sprayed Arabidopsis thaliana plants
Method: Wild-type Arabidopsis thaliana Col-0 seeds were grown in pots under a 16 hours day/8 hours night (long day) photoperiod, with a daytime temperature of 22° C., a night temperature of 20° C., and a relative humidity of 65%. Plants were sprayed with each inductor dissolved in water (inductors alone or in combination). 24 and 48 hours after treatment (hours post treatment, hpt), tissue samples were harvested and gene expression analysis of specific defense marker genes was performed, through quantitative PCR technology (qPCR).
The genes involved in plant defense analyzed were one or more of the following 5: • PR1 (PATHOGENESIS-RELATED PROTEIN 1). AGI code: AT2G14610 • PDF1.2 (PLANT DEFENSIN 1.2). AGI code: AT5G44420 • PR2 (PATHOGENESIS-RELATED PROTEIN 2; BETA-1,3-GLUCANASE 2). AGI code: AT3G57260 • PR5 (PATHOGENESIS-RELATED GENE 5). AGI code: AT1G75040 • ICS1 (ISO[…] 1). AGI code: AT1G74710
UBC21 (UBIQUITIN-CONJUGATING ENZYME 21; AGI code: AT5G25760) was the normalization (or housekeeping) gene used.
PR1 (Salicylic acid-signaling pathway marker gene) and PDF1.2 (Jasmonic acid-signaling pathway marker gene) are important marker genes of plant defense system, because they are necessary to plant defense mechanisms activation.
In order to evaluate if there is a synergistic effect between different possible combinations, Limpel/Colby's formula was used. This formula is used to calculated the expected activity of combinations containing two active ingredients, A and B: Expected (E)=A+B−(A×B/100) Wherein, • A=observed gene activation of active component A at the same concentration as used in the mixture • B=observed gene activation of active component B at the same concentration as used in the mixture
When the activity found experimentally (observed) is greater than the value of E, said activity should be considered as being a synergistic effect, and Synergy Factor (F) is >1: Synergy Factor (F)=Observed activity/Expected activity (E)
In the following: • OV: Observed gene activation value • CEV: Colby expected gene activation value with the mixture [CEV=A+B−(A×B/100)] Synergy Factor (F)=OV(A+B)/CEV(A+B) • hpt: hours post treatment.

[3] = system: Podosphaera xanthii on cucumber; test: Powdery mildew on cucumber, greenhouse disease control
Method: (§1) The experiments were carried out under controlled greenhouse conditions. The effects of temperature, humidity and light conditions in the greenhouse chambers were adjusted according to host plants and pathogens needs.
(§2) The efficacy or disease control value (W) was calculated according to Abbott's formula: W=(1−x/y)×100 wherein • x=percentage of fungal or bacterial infection in treated plants • y=percentage of fungal or bacterial infection in untreated control plants
(§3) An efficacy of 0 means the infection level of the treated plants corresponds to that of the untreated control plants; and efficacy of 100 means that the treated plants are not infected.
In order to evaluate if there is a synergistic effect between different possible combinations, Limpel/Colby's formula was used.
Synergy Factor (F)=OV(A+B)/CEV(A+B) 1. Podosphaera xanthii on Cucumber
1.2-leaf stage cucumber plants (cv. Suzunari-suyo), grown in pots under controlled conditions, were treated by spraying of the leaves or by soil drenching with the mixture in question, dispersed in an aqueous solution. Plants were kept in a growth chamber at 25° C. and 80% RH. After 7 days, plants were inoculated and infected with a spore suspension of Podosphaera xanthii, and, 10 days after pathogen inoculation, infection levels were assessed and percentages of disease control and expected values were calculated according to Abbott's and Colby's formulas, respectively.

[4] = system: Pyricularia oryzae on rice; settings: Test 3, soil drench
[5] = system: Pseudomonas cannbina pv. alisalensis on Chinese cabbage; settings: for Percentage of disease control B: in vivo
[6] = system: Phakopsora pachyrhizi on soybean; test: Asian rust on soybean, greenhouse disease control; settings: B alone 100 ppm, leaf spray
Method: as §1, §2, §3
In order to evaluate if there is a synergistic effect between different possible combinations, Limpel/Colby's formula was used. This formula is used to calculated the expected disease control value of combinations containing two active ingredients, A and B: Expected (E)=A+B−(A×B/100) wherein, • A=observed disease control value of component A, at the same concentration as used in the mixture • B=observed disease control value of component B, at the same concentration as used in the mixture
When the disease control value found experimentally (observed) with the combination is greater than the value of E, said activity should be considered as being a synergistic effect, and Synergy Factor (F) is >1: Synergy Factor (F)=Observed disease control value/Expected disease control value (E)
As above, in the following Tables: • OV: Observed control value • CEV: Colby expected control value with the mixture [CEV=A+B−(A×B/100)] Synergy Factor (F)=OV(A+B)/CEV(A+B) 1. Podosphaera xanthii on Cucumber
1.5-leaf stage soybean plants (cv. Tsurunoko-daizu), grown in pots under controlled conditions, were treated by spraying of the leaves with the mixture in question, dispersed in an aqueous solution. After 7 days, plants were inoculated and infected with a spore suspension of Phakopsora pachyrhizi(1×10^6 uredospores/ml), and they were kept in a growth chamber at 25° C. and 90% RH. 10 days after pathogen inoculation, infection levels were assessed and percentages of disease control and expected values were calculated according to Abbott's and Colby's formulas, respectively.

[7] = Combinations with Chitooligosaccharides
[8] = Test 4 (spray treatment), 100 ppm

2-amino-3,5-dichlorobenzoic acid (3,5-dichloroanthranilic acid)
PR1 gene activation OV A or B (single component) ([1]; 25 ppm, 24 hpt): 4.61 n-fold | PR1 gene activation OV A or B (single component) ([1]; 25 ppm, 48 hpt): 4.14 n-fold | PDF1.2 gene activation OV A or B (single component) ([2]; 25 ppm, 48 hpt): 5.70 n-fold

Flagellin
PR1 gene activation OV A or B (single component) ([1]; 2.3 ppm, 24 hpt): 2.05 n-fold | PR1 gene activation OV A or B (single component) ([1]; 2.3 ppm, 48 hpt): 5.89 n-fold | PDF1.2 gene activation OV A or B (single component) ([2]; 2.3 ppm, 24 hpt): 1.44 n-fold | PDF1.2 gene activation OV A or B (single component) ([2]; 2.3 ppm, 48 hpt): 0.94 n-fold

CC(N)CC(=O)O (stereo not drawn) [Beta-Aminobutyric acid, beta-aminobutyric acid]
PR1 gene activation OV A or B (single component) ([1]; 100 ppm, 24 hpt): 2.53 n-fold | PR1 gene activation OV A or B (single component) ([1]; 100 ppm, 48 hpt): 8.50 n-fold | PDF1.2 gene activation OV A or B (single component) ([2]; 100 ppm, 48 hpt): 4.37 n-fold | Percentage of disease control OV A or B (single component) ([3]; Test 4 (spray treatment), 300 ppm): 20% | Percentage of disease control B ([4]; B alone 300 ppm): 0% | Percentage of disease control B [5]: 46% | Percentage of disease control B [6, 7]: 0%

CC/C=C\CC1C(=O)CCC1CC(=O)OC (stereo not shown) [Methyl jasmonate, methyl jasmonate]
PR1 gene activation OV A or B (single component) ([1]; 600 ppm, 24 hpt): 1.10 n-fold | PR1 gene activation OV A or B (single component) ([1]; 600 ppm, 48 hpt): 36.36 n-fold | PDF1.2 gene activation OV A or B (single component) ([2]; 600 ppm, 24 hpt): 6.93 n-fold

O=C(O)CCCCCCCC(=O)O [Azelaic acid, azelaic acid]
PDF1.2 gene activation OV A or B (single component) ([2]; 200 ppm, 24 hpt): 331.01 n-fold | PDF1.2 gene activation OV A or B (single component) ([2]; 200 ppm, 48 hpt): 87.56 n-fold

O=C(O)c1ccccc1O [Salicylic acid, salicylic acid]
PR1 gene activation OV A or B (single component) ([1]; 100 ppm, 24 hpt): 87.08 n-fold | PR1 gene activation OV A or B (single component) ([1]; 100 ppm, 48 hpt): 58.77 n-fold | PDF1.2 gene activation OV A or B (single component) ([2]; 100 ppm, 24 hpt): 12.69 n-fold | PDF1.2 gene activation OV A or B (single component) ([2]; 100 ppm, 48 hpt): 7.80 n-fold

Cc1ncc(C[n+]2csc(CCO)c2C)c(N)n1 [Vitamin B1, vitamin B1]
PR1 gene activation OV A or B (single component) ([1]; 8000 ppm, 24 hpt): 8.35 n-fold | PDF1.2 gene activation OV A or B (single component) ([2]; 8000 ppm, 24 hpt): 231.82 n-fold | PDF1.2 gene activation OV A or B (single component) ([2]; 8000 ppm, 48 hpt): 319.68 n-fold

O=S1(=O)N=C(OCc2snc(Cl)c2Cl)c2ccccc21 [Dichlobentiazox]
Percentage of disease control OV A or B (single component) ([3]; Test 3 (soil drench treatment), 100 ppm): 0% | Percentage of disease control OV A or B (single component) ([5]; 100 ppm): 0% | Percentage of disease control B [5]: 0% | Percentage of disease control B [6, 7]: 53%

O=C(O)c1cc(Cl)nc(Cl)c1 [2,6-Dichloroisonicotinic acid, 2,6-dichloro-isonicotinic acid]
PR1 gene activation OV A or B (single component) ([1]; 75 ppm, 24 hpt): 15.45 n-fold | PR1 gene activation OV A or B (single component) ([1]; 75 ppm, 48 hpt): 26.64 n-fold | PDF1.2 gene activation OV A or B (single component) ([2]; 75 ppm, 24 hpt): 5.13 n-fold | PDF1.2 gene activation OV A or B (single component) ([2]; 75 ppm, 48 hpt): 1.68 n-fold | Percentage of disease control OV A or B (single component) ([5]; 300 ppm): 83% | Percentage of disease control B [5]: 83%

N#Cc1ccccc1NC(=O)c1snc(Cl)c1Cl [Isotianil, isotianil]
PDF1.2 gene activation OV A or B (single component) ([2]; 30 ppm, 24 hpt): 18.22 n-fold | PDF1.2 gene activation OV A or B (single component) ([2]; 30 ppm, 48 hpt): 57.21 n-fold | Percentage of disease control OV A or B (single component) [3, 8]: 10% | Percentage of disease control B ([4]; B alone 100 ppm): 77% | Percentage of disease control B ([6]; Combinations with Carrageenan): 20% | Percentage of disease control B [6, 7]: 20% | Percentage of disease control B ([6]; Combinations with Laminarin): 20%

Cc1ccc(NC(=O)c2snnc2C)cc1Cl [Tiadinil, tiadinil]
PDF1.2 gene activation OV A or B (single component) ([2]; 45 ppm, 24 hpt): 189.33 n-fold | Percentage of disease control OV A or B (single component) [3, 8]: 0% | Percentage of disease control B ([4]; B alone 100 ppm): 80%

— patent US12389905B2, “Synergistic mixture of plant defense inductors” (LIDA PLANT RESEARCH S.L., priority 2018, dated 2025)
